The target of one assay is T1, mGLP1R (Mus musculus, UniProt O35659).
T1 construct: expressed in transfected cells; host or cells: AD293 cells, transient transfection (Lipofectamine 2000)
T1 sequence (O35659 22-463): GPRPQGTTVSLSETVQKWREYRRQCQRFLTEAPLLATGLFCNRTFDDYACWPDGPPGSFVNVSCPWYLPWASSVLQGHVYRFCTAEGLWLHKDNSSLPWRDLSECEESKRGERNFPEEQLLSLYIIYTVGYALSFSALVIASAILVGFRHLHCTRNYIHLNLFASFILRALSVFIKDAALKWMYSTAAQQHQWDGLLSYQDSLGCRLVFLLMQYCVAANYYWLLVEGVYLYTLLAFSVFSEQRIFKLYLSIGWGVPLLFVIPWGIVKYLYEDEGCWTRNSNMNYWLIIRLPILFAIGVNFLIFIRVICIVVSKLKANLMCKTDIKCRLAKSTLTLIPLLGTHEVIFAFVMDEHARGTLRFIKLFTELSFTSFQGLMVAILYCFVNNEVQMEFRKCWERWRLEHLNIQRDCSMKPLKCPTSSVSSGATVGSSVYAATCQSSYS
Description: HTRF cAMP assay in transiently transfected AD293 cells. The format is cell-based. Particulars: 30 min 37 °C, n = 4 independent repeats, Extended Data Table 1, read-out: mGLP1R EC50 best-fit.

For another assay, the target named is T2, mGIPR (Mus musculus, UniProt Q0P543).
T2 construct: expressed in transfected cells; host or cells: AD293 cells, transient transfection (Lipofectamine 2000)
T2 sequence (Q0P543 19-460): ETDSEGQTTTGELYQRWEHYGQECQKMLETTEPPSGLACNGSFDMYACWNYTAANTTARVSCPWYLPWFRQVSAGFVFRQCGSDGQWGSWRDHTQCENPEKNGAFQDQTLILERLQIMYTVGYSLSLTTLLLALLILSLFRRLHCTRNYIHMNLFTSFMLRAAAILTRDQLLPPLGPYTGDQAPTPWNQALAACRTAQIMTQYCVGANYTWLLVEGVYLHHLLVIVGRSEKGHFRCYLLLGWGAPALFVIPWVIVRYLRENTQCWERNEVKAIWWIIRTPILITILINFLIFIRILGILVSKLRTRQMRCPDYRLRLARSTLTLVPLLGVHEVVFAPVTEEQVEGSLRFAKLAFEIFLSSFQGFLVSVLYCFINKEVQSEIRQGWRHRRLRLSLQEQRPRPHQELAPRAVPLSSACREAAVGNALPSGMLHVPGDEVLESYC
Described as above. The format is cell-based. Particulars: cAMP, AD293 cells, 30 min 37 °C, n = 4 independent repeats; Extended Data Table 1; read-out: mGIPR EC50 best-fit. As for the experimental part: (§1) AD293 cells (RRID:CVCL_9804) were transiently transfected 24 h before the assay in six-well plates with plasmids encoding wild-type hGLP1R, mGLP1R, hGIPR or mGIPR using Lipofectamine 2000. AD293 cells were authenticated at source using STR profiling. Cells were detached and treated with a range of agonist concentrations in serum-free DMEM + 0.1% BSA for 30 min at 37 °C in 96-well plates, followed by the addition of lysis buffer 2 (Cisbio) at a 1:2 ratio. Lysates were further diluted 1:10 to avoid spectral interference from the higher concentrations of fluorescent ligands in the HTRF assay, and the concentration of cAMP was determined after the addition of cAMP Dynamic detection reagents (Cisbio).

The target in a further assay is T3, hGIPR (Homo sapiens, UniProt P48546).
T3 construct: expressed in transfected cells; host or cells: AD293 cells, transient transfection (Lipofectamine 2000)
T3 sequence (P48546 22-466): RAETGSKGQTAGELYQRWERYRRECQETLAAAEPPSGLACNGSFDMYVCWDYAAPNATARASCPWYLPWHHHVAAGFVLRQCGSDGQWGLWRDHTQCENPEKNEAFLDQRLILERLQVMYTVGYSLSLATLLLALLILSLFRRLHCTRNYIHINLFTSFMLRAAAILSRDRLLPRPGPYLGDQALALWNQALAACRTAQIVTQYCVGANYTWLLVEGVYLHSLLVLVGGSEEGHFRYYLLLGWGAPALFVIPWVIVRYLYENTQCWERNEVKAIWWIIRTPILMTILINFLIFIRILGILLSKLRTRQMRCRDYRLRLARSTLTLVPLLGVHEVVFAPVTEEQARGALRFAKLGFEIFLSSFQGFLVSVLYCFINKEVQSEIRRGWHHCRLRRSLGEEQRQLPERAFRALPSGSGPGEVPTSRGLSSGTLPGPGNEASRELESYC
The assay is described as above. The format is cell-based. The conditions noted are these: 30 min 37 °C, n = 4 independent repeats, Extended Data Table 1, read-out: hGIPR EC50 best-fit. The procedure: as §1

In a further assay the target is T4, GIP(1-42) (Homo sapiens, UniProt P09681).
T4 chain: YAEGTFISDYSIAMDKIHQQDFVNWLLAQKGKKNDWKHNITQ
Nature of the assay: competition.

Values joined by “and” are separate entries in the source; they are usually repeats but may differ in a detail not shown here. Equal entries are not always repeated.

With `CC[C@H](C)[C@H](NC(=O)[C@H](CC(C)C)NC(=O)[C@H](Cc1c[nH]c2ccccc12)NC(=O)[C@H](CCC(N)=O)NC(=O)[C@@H](NC(=O)[C@H](Cc1ccccc1)NC(=O)[C@H](C)NC(=O)[C@H](CCCCNC(=O)COCCOCCNC(=O)COCCOCCNC(=O)CC[C@H](NC(=O)CCCCCCCCCCCCCCCCCCC(=O)O)C(=O)O)NC(=O)[C@H](CCC(N)=O)NC(=O)[C@H](C)NC(=O)[C@@H](NC(=O)[C@H](CCCCN)NC(=O)[C@H](CC(=O)O)NC(=O)[C@H](CC(C)C)NC(=O)C(C)(C)NC(=O)[C@@H](NC(=O)[C@H](CO)NC(=O)[C@H](Cc1ccc(O)cc1)NC(=O)[C@H](CC(=O)O)NC(=O)[C@H](CO)NC(=O)[C@@H](NC(=O)[C@H](Cc1ccccc1)NC(=O)[C@@H](NC(=O)CNC(=O)[C@H](CCC(=O)O)NC(=O)C(C)(C)NC(=O)[C@@H](N)Cc1ccc(O)cc1)[C@@H](C)O)[C@@H](C)O)[C@@H](C)CC)[C@@H](C)CC)C(C)C)C(=O)N[C@@H](C)C(=O)NCC(=O)NCC(=O)N1CCC[C@H]1C(=O)N[C@@H](CO)C(=O)N[C@@H](CO)C(=O)NCC(=O)N[C@@H](C)C(=O)N1CCC[C@H]1C(=O)N1CCC[C@H]1C(=O)N1CCC[C@H]1C(=O)N[C@@H](CO)C(N)=O` [tirzepatide], the results for the EC50 on mGLP1R, at mGIPR and on hGIPR were 29.4 nM, 112 nM and 0.641 nM, respectively.

B1: GIPR (protein)
chain: RAETGSKGQTAGELYQRWERYRRECQETLAAAEPPSGLACNGSFDMYVCWDYAAPNATARASCPWYLPWHHHVAAGFVLRQCGSDGQWGLWRDHTQCENPEKNEAFLDQRLILERLQVMYTVGYSLSLATLLLALLILSLFRRLHCTRNYIHINLFTSFMLRAAAILSRDRLLPRPGPYLGDQALALWNQALAACRTAQIVTQYCVGANYTWLLVEGVYLHSLLVLVGGSEEGHFRYYLLLGWGAPALFVIPWVIVRYLYENTQCWERNEVKAIWWIIRTPILMTILINFLIFIRILGILLSKLRTRQMRCRDYRLRLARSTLTLVPLLGVHEVVFAPVTEEQARGALRFAKLGFEIFLSSFQGFLVSVLYCFINKEVQSEIRRGWHHCRLRRSLGEEQRQLPERAFRALPSGSGPGEVPTSRGLSSGTLPGPGNEASRELESYC
Regarding B1, in the assay with GIP(1-42), the Ki was 13.9 nM and 9.38 nM.

For the origin of these results see publication PMC12373499 (Nature Metabolism, 2025).
